The source of these data is paper PMC3869807 (PLoS ONE, 2013).

Experiment [1] has as its target T1, µ-opioid receptor (Homo sapiens, UniProt P35372). Put plainly: cell-based. Also noted: host or cells: U2OS. Format: cell-based.
Experiment [2] concerns the target T1, µ-opioid receptor. Put plainly: biochemical. Also noted: host or cells: U2OS (membrane preparation).
Experiment [3] deals with T1, µ-opioid receptor. Put plainly: biochemical. In kind it is binding. Further details: host or cells: U2OS (membrane preparation).
For experiment [4], the target named is T1, µ-opioid receptor. Put plainly: biochemical. Also noted: host or cells: U2OS (membrane preparation). Format: binding. This is another data set of the same source.

Where “and” joins values, the source holds several entries; their conditions need not be identical. Equal entries are not always repeated.

T1 sequence (P35372 whole entry): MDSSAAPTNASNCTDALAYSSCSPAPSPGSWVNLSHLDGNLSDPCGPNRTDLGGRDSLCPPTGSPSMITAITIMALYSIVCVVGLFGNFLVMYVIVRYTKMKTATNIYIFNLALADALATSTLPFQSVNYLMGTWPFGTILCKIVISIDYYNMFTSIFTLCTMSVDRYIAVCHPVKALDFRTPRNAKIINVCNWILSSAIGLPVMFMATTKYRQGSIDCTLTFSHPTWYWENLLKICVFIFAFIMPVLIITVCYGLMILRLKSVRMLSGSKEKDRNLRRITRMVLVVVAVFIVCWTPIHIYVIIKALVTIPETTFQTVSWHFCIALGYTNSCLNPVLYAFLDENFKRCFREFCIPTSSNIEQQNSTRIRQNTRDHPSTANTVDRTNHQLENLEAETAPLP

Turning to `C[C@@H](NC(=O)[C@@H](N)Cc1ccc(O)cc1)C(=O)NCC(=O)N(C)[C@@H](Cc1ccccc1)C(=O)NCCO` [DAMGO, [D-Ala^2, MePhe^4, gly^5 –ol]-enkephalin], at µ-opioid receptor [1], the “β-arrestin recruitment that was PTX sensitive” value is 60–70%.

Take `NC(=O)[C@H](Cc1ccccc1)NC(=O)[C@H](Cc1ccccc1)NC(=O)[C@@H]1CCCN1C(=O)[C@@H](N)Cc1ccc(O)cc1` [Endomorphin 2, endomorphin 2]: the maximal effect (Emax) was 74±4% on µ-opioid receptor [1]; 69 ± 3% at µ-opioid receptor [1] (U2OS); 104% and 101±2% on µ-opioid receptor [2].

As to `COc1ccc2c3c1O[C@H]1C(=O)CC[C@@]4(O)[C@@H](C2)N(C)CC[C@]314` [Oxycodone, oxycodone], the “β-arrestin recruitment that was PTX sensitive” value on µ-opioid receptor [1] is recorded as 60–70%. For the same compound, the maximal response (Emax) at µ-opioid receptor [2] is 95% and 104±2%.

Consider `CC(=O)N[C@@H](Cc1ccccc1)C(=O)NCC(C)(C)NC(=O)[C@@H](N)Cc1ccc(O)cc1.Cl` [Pfizer comp 1, 2-(L-Tyrosylamino)-1-[(N-acetyl-L-phenylalanyl)-amino]-2-methylpropane hydrochloride], for which the maximal response (Emax) at µ-opioid receptor [1] is 99±8%; on µ-opioid receptor [1] (U2OS), 106 ± 4%; at µ-opioid receptor [2] it was 103% and 100±4%. Moreover, the “β-arrestin recruitment that was PTX sensitive” value on µ-opioid receptor [1] is 60–70%. Besides, the 50% effective concentration (EC50) on µ-opioid receptor [1] (β-fun 1 nM EC50) is 1.38 nM; on µ-opioid receptor [1] (β-fun 10 nM EC50), 2.24 nM; on µ-opioid receptor [2] (EC50) it was 0.219 nM and 0.17 nM. Further, the Ki is 21.9 nM at µ-opioid receptor [3] (GRK2 moi 5 KL), 42.7 nM on µ-opioid receptor [3] (Untransduced KL), 0.0513 nM at µ-opioid receptor [4] (GRK2 moi 5 KH) and 0.0479 nM on µ-opioid receptor [4] (Untransduced KH).
